In patent US20080051438A1, “Preventive/Therapeutic Compositions Useful for Treating Cardiovascular Diseases” (priority 2006, published 2008):
Where “and” joins values, the source holds several entries; their conditions need not be identical. Identical values can stand only once. Marks after values point to notes of the source that are not given here.

Legend:
Assay type in all cases: in vivo, human
hypertensive patients [1] = test: Special investigation of combined use of cilnidipine and ARB: occurrence of side-effects (safety analysis); conditions: for side-effect number of cases / side-effect number of examples: cilnidipine and ARB; for side-effect occurence rate (%): combined administration of cilnidipine and ARB
Method: (§1) A special investigation was conducted in various medical centers, compiled, and analyzed to evaluate the safety and availability of the combined use of cilnidipine and at least one angiotensin II receptor blocker.
The investigation was conducted mainly in the departments of internal medicine/cardiovascular diseases of various medical institutions. The target of the estimated collected cases was about 3000 cases.
(§2) The subjects of the investigation were hypertensive patients which were adapted to cilnidipine. Combined administration of cilnidipine and ARB was started for the treatment of hypertension in these patients.
(§3) A prospective continuous investigation method was conducted. Such a method is continuously conducted with the registered cases with the combined administration of cilnidipine (Atelec®) and ARB, until the number of cases reaches the contracted cases for each center.
(§4) Regarding the administration method of cilnidipine, 5 to 10 mg of cilnidipine was orally administered after breakfast once a day. Meanwhile, the amount may increase or decrease depending on patient's age, symptoms, or the like. When the effect is insufficient, the amount can be increased to 20 mg once a day. The dosing period of cilnidipine was set to 12 weeks in principle.
(§5) The following items were tracked during the investigation: patient's background (sex), existence or nonexistence of previous therapeutic agents and the content thereof, targeted blood pressure (systolic BP/diastolic BP), the conditions of administration of cilnidipine and ARB, antihypertensives used in combination (those other than cilnidipine or ARB), clinical course (systolic BP/diastolic BP/heart rate), and occurrence of side-effects. As for the availability of the combined administration, in the 12th week after starting the combined administration, the doctor in attendance judged the degree of the blood pressure controls on a three-point scale of “well-controlled”, “nearly well-controlled” and “poorly-controlled”, referring to the changes in the systolic and diastolic BP. As for the safety and availability analysis for each patient background, Fisher's exact probability test or the X^2 test was used. As for the blood pressure and heart rate, the average value and the standard deviation were calculated for the subjects before the combined administration (within 4 weeks before starting the combined administration), and data after starting the combined administration were determined on each observation day, and analysis was conducted by using a paired t-test. The test was conducted as the two-sided test and less than 5% of the risk rate was regarded as significant. Furthermore, side-effects were compiled based on the naming of preferred terms (PT) of MedDRA/J ver 8.0.
The ratios of the cases wherein side-effects occurred were compared and examined between the sexes in the 2920 cases of the safety analysis (Table 5). […] The ratio thereof in a female group was 3.2% and that in a male group was 1.8%. […] The side-effects observed were mainly subjective symptoms such as headache, palpitation, and free-floating dizziness. Meanwhile, the ratio of the cases wherein the side-effects of these subjective symptoms occurred was low, and it is not a serious side-effect caused by the combined administration.

hypertensive patients [2] = test: Special investigation of combined use of cilnidipine and ARB: changes in systolic and diastolic blood pressure; conditions: for diastolic BP, aft. / systolic BP, aft. / diastolic BP, bef. / systolic BP, bef.: all availability cases; for diastolic BP, bef. use / systolic BP, bef. use / diastolic BP, aft. use / systolic BP, aft. use: only ARB
Method: as §1, §2, §3, §4, §5
Table 7 and FIG. 2 show the number of cases for which the blood pressure was measured, and the changes in the measured values of systolic BP, diastolic BP, and heart rate were measured at the following time points: before starting the combined administration, 4 weeks, 8 weeks, and 12 weeks after starting the combined administration, and the last measurement, […] administration, n=2919). […] Then, it continued to slowly decrease, and the a stable change was seen up to 12 weeks after the start.

hypertensive patients [3] = test: Special investigation of combined use of cilnidipine and ARB: changes in heart rate; conditions: for heart rate after starting the combined administration / heart rate after starting the combined use: 12 weeks and later up to last measurement; for heart rate, aft. / heart rate, bef.: all availability cases; for heart rate, bef. use / heart rate, aft. use: only ARB
Method: as §1, §2, §3, §4, §5
Table 7 and FIG. 2 show the number of cases for which the blood pressure was measured, and the changes in the measured values of systolic BP, diastolic BP, and heart rate were measured at the following time points: before starting the combined administration, 4 weeks, 8 weeks, and 12 weeks after starting the combined administration, and the last measurement, which was 222.43 days in average from the start of the combined administration, n=2919). […] Then, it continued to slowly decrease, and the a stable change was seen up to 12 weeks after the start.

hypertensive patients [4] = test: Special investigation of combined use of cilnidipine and ARB: changes in systolic and diastolic blood pressure; conditions: only ARB, then cilnidipine singularly added; last measurement (222.03±143.88 days)
[5] = cilnidipine + ARB, 4 wks after use
[6] = cilnidipine + ARB, 8 wks after use
[7] = cilnidipine + ARB, 12 wks after use
[8] = cilnidipine + ARB, before combined use, 2,586 cases
[9] = cilnidipine + ARB, last measurement (222.43 days in average)
[10] = value before combined use of the 840 cases measured at 8 wks
[11] = value before combined use of the 950 cases measured at 12 wks
[12] = value before combined use of the 1,131 cases measured at 4 wks
[13] = value before combined use of the 2,565 cases with last measurement
[14] = then cilnidipine added, value before combined use of the 338 cases measured at 8 wks
[15] = then cilnidipine added, value before combined use of the 360 cases measured at 12 wks
[16] = then cilnidipine added, value before combined use of the 453 cases measured at 4 wks
[17] = then cilnidipine added, value before combined use of the 1,047 cases with last measurement
[18] = then cilnidipine singularly added, 4 wks after the use
[19] = then cilnidipine singularly added, 8 wks after the use
[20] = then cilnidipine singularly added, 12 wks after the use
[21] = then cilnidipine singularly added, before combined use, 1,055 cases
[22] = then cilnidipine singularly added, last measurement (222.03±143.88 days)
[23] = all availability cases with heart rate 75 or higher and less than 85 beats/min. before combined use
[24] = all availability cases with heart rate 85 beats/min. or higher before combined use
[25] = only ARB then cilnidipine added, cases with heart rate 75 or higher and less than 85 beats/min. before combined use
[26] = only ARB then cilnidipine added, cases with heart rate 85 beats/min. or higher before combined use

Q: Which results are given for `COCCOC(=O)C1=C(C)NC(C)=C(C(=O)OC/C=C/c2ccccc2)C1c1cccc([N+](=O)[O-])c1` (racemic) [cilnidipine, 2-methoxyethyl-3-phenyl-2(E)-propenyl(±)-1,4-dihydro-2,6-dimethyl-4-(3-nitrophenyl)-3,5-pyridinedicarboxylate]?
A: ratio of the cases wherein side-effects occurred (hypertensive patients [1]; cases on ARB alone to which cilnidipine was additionally administered): low; side-effect number of cases (hypertensive patients [1]; female group, 1,481 cases): 56; side-effect number of examples (hypertensive patients [1]; female group, 1,481 cases): 47; side-effect occurence rate (%) (hypertensive patients [1]; female group, 1,481 cases): 3.2% and 3.17%; side-effect number of cases (hypertensive patients [1]; male group, 1,416 cases): 32; side-effect number of examples (hypertensive patients [1]; male group, 1,416 cases): 26; side-effect occurence rate (%) (hypertensive patients [1]; male group, 1,416 cases): 1.8% and 1.84%; side-effect number of cases (hypertensive patients [1]; sex unknown, 23 cases): 0; side-effect number of examples (hypertensive patients [1]; sex unknown, 23 cases): 0; side-effect occurence rate (%) (hypertensive patients [1]; sex unknown, 23 cases): 0%; diastolic BP, aft. (hypertensive patients [2]; [5]): 80.44 ± 11.30 mmHg; systolic BP, aft. (hypertensive patients [2]; [5]): 144.31 ± 16.64 mmHg; diastolic BP, aft. (hypertensive patients [2]; [6]): 78.69 ± 10.99 mmHg; systolic BP, aft. (hypertensive patients [2]; [6]): 142.28 ± 17.41 mmHg; diastolic BP, aft. (hypertensive patients [2]; [7]): 78.64 ± 11.39 mmHg; systolic BP, aft. (hypertensive patients [2]; [7]): 140.57 ± 16.45 mmHg; diastolic BP, bef. (hypertensive patients [2]; [8]): 89.49 ± 13.09 mmHg; systolic BP, bef. (hypertensive patients [2]; [8]): 162.21 ± 19.21 mmHg; diastolic BP, aft. (hypertensive patients [2]; [9]): 78.78 ± 10.68 mmHg; systolic BP, aft. (hypertensive patients [2]; [9]): 139.67 ± 16.47 mmHg; diastolic BP, bef. (hypertensive patients [2]; [10]): 88.22 ± 13.53 mmHg; systolic BP, bef. (hypertensive patients [2]; [10]): 161.13 ± 18.47 mmHg; diastolic BP, bef. (hypertensive patients [2]; [11]): 88.56 ± 13.48 mmHg; systolic BP, bef. (hypertensive patients [2]; [11]): 161.63 ± 18.58 mmHg; diastolic BP, bef. (hypertensive patients [2]; [12]): 88.80 ± 12.94 mmHg; systolic BP, bef. (hypertensive patients [2]; [12]): 161.96 ± 19.46 mmHg; diastolic BP, bef. (hypertensive patients [2]; [13]): 89.51 ± 13.09 mmHg; systolic BP, bef. (hypertensive patients [2]; [13]): 162.19 ± 19.11 mmHg; diastolic BP, bef. use (hypertensive patients [2]; [14]): 90.63 ± 13.13 mmHg; systolic BP, bef. use (hypertensive patients [2]; [14]): 162.45 ± 16.04 mmHg; diastolic BP, bef. use (hypertensive patients [2]; [15]): 90.26 ± 12.40 mmHg; systolic BP, bef. use (hypertensive patients [2]; [15]): 161.92 ± 15.66 mmHg; diastolic BP, bef. use (hypertensive patients [2]; [16]): 90.72 ± 12.00 mmHg; systolic BP, bef. use (hypertensive patients [2]; [16]): 163.61 ± 15.91 mmHg; diastolic BP, bef. use (hypertensive patients [2]; [17]): 91.31 ± 11.47 mmHg; systolic BP, bef. use (hypertensive patients [2]; [17]): 163.11 ± 16.40 mmHg; diastolic BP, aft. use (hypertensive patients [2]; [18]): 81.47 ± 10.51^b mmHg; systolic BP, aft. use (hypertensive patients [2]; [18]): 143.91 ± 15.39^b mmHg; diastolic BP, aft. use (hypertensive patients [2]; [19]): 79.75 ± 10.37^b mmHg; systolic BP, aft. use (hypertensive patients [2]; [19]): 140.97 ± 15.94^b mmHg; diastolic BP, aft. use (hypertensive patients [2]; [20]): 79.71 ± 11.23^b mmHg; systolic BP, aft. use (hypertensive patients [2]; [20]): 140.09 ± 15.37^b mmHg; diastolic BP, bef. use (hypertensive patients [2]; [21]): 91.26 ± 11.48 mmHg; systolic BP, bef. use (hypertensive patients [2]; [21]): 163.09 ± 16.36 mmHg; diastolic BP, aft. use (hypertensive patients [2]; [22]): 79.68 ± 10.68^b mmHg; heart rate before starting the combined use (hypertensive patients [3]; [23]): 79.19±2.73 beats/min.; heart rate after starting the combined administration (hypertensive patients [3]; [23]): 76.28±8.93 beats/min.; heart rate before starting the combined use (hypertensive patients [3]; [24]): 93.48±7.28 beats/min.; heart rate after starting the combined administration (hypertensive patients [3]; [24]): 84.57±11.17 beats/min.; heart rate, aft. (hypertensive patients [3]; [5]): 73.80 ± 10.80 beat/min.; heart rate, aft. (hypertensive patients [3]; [6]): 72.87 ± 10.53 beat/min.; heart rate, aft. (hypertensive patients [3]; [7]): 73.61 ± 10.57 beat/min.; heart rate, bef. (hypertensive patients [3]; cilnidipine + ARB, before combined use, 1,815 cases): 75.40 ± 11.47 beat/min.; heart rate, aft. (hypertensive patients [3]; [9]): 73.18 ± 10.37 beat/min.; heart rate, bef. (hypertensive patients [3]; value before combined use of the 557 cases measured at 8 wks): 73.83 ± 10.49 beat/min.; heart rate, bef. (hypertensive patients [3]; value before combined use of the 664 cases measured at 12 wks): 75.33 ± 10.98 beat/min.; heart rate, bef. (hypertensive patients [3]; value before combined use of the 765 cases measured at 4 wks): 75.06 ± 11.46 beat/min.; heart rate, bef. (hypertensive patients [3]; value before combined use of the 1,615 cases with last measurement): 75.18 ± 11.30 beat/min.; heart rate before starting the combined use (hypertensive patients [3]; [25]): 79.24±2.71 beats/min.; heart rate after starting the combined use (hypertensive patients [3]; [25]): 76.87±8.37 beats/min.; heart rate before starting the combined use (hypertensive patients [3]; [26]): 93.64±6.90 beats/min.; heart rate after starting the combined use (hypertensive patients [3]; [26]): 84.30±10.58 beats/min.; heart rate, bef. use (hypertensive patients [3]; then cilnidipine added, value before combined use of the 229 cases measured at 8 wks): 72.97 ± 10.16 beat/min.; heart rate, bef. use (hypertensive patients [3]; then cilnidipine added, value before combined use of the 249 cases measured at 12 wks): 73.98 ± 10.44 beat/min.; heart rate, bef. use (hypertensive patients [3]; then cilnidipine added, value before combined use of the 308 cases measured at 4 wks): 73.40 ± 10.54 beat/min.; heart rate, bef. use (hypertensive patients [3]; then cilnidipine added, value before combined use of the 648 cases with last measurement): 74.26 ± 10.58 beat/min.; heart rate, aft. use (hypertensive patients [3]; [18]): 72.49 ± 10.25^a beat/min.; heart rate, aft. use (hypertensive patients [3]; [19]): 72.62 ± 10.60 beat/min.; heart rate, aft. use (hypertensive patients [3]; [20]): 72.54 ± 10.28^a beat/min.; heart rate, bef. use (hypertensive patients [3]; then cilnidipine singularly added, before combined use, 738 cases): 74.46 ± 10.76 beat/min.; heart rate, aft. use (hypertensive patients [3]; [22]): 73.24 ± 10.51^a beat/min.; systolic BP, aft. use (hypertensive patients [4]): 139.73 ± 15.77^b mmHg
